Measured values reported in US6528525B1, “Amidocarboxylic acid derivatives” (Sankyo Company, Limited, priority 1998, dated 2003).

The molecules below were run on hyperglycemic male KK mice (assay: Action in depressing blood glucose (Method 1)). Details: Mus musculus, po, 72 h, compound admixed with powder feed at 0.01% (ca. 10 mg/kg/day) for three days, plasma glucose vs control group, read-out: Rate of hypoglycemic activity (%) (blood glucose depression rate).
Assay type: in vivo
Description: Action in Depressing Blood Glucose (Method 1)
Each compound, admixed with powder feed F-2 (Funabashi Farm) was administered to hyperglycemic male KK mice each having a body weight of 40 g or more at a rate of 0.01% (ca. 10 mg/kg/day) for three days. Meanwhile, mice of a control group were fed with the powder feed only. Then, a blood sample was collected from the caudal vein of each mouse under no anesthesia and centrifuged. The blood glucose in the plasma thus obtained was determined using Glucoloader F (Product of A & T Co., Ltd.).
The blood glucose depression rate were estimated from the following equation:
Blood glucose depression rate (%)=[(Blood glucose in Control group−Blood glucose in administered group)/Blood glucose in Control group]×100

Compound | inhibition in vivo at 10 mg/kg/day [%]
CC(C)c1ccc(OC(Cc2ccc(OCCNC(=O)c3ccc(OCC(F)(F)C(F)F)nc3)cc2)C(=O)O)cc1 (stereo not shown) [Example 103, Sodium 3-[4-[2-[2-(2,2,3,3-tetrafluoropropoxy)pyridine-5-carbonylamino]ethoxy]phenyl]-2-(4-isopropylphenoxy)propionate] | 48
CC(C)c1ccc(O[C@@H](Cc2ccc(OCCNC(=O)c3ccc(-c4ccccn4)cc3)cc2)C(=O)O)cc1 [Example 104, (S)-2-(4-Isopropylphenoxy)-3-[4-[2-(4-pyridine-2-ylbenzoylamino)ethoxy]phenyl]propionic acid] | 73
CC(C)c1ccc(OC(Cc2ccc(OCCNC(=O)c3ccc(-c4ccc(C(F)(F)F)cn4)cc3)cc2)C(=O)O)cc1 (stereo not shown) [Example 107, 2-(4-isopropylphenoxy)-3-[4-[2-[4-(3-trifluoromethylpyridine-6-yl)benzoylamino]ethoxy]phenyl]propionic acid] | 38
CC(C)c1ccc(OC(Cc2ccc(OCCNC(=O)c3ccc(-c4ccc([N+](=O)[O-])cn4)cc3)cc2)C(=O)O)cc1 (stereo not shown) [Example 109, 2-(4-Isopropylphenoxy)-3-[4-[2-[4-(3-nitropyridine-6-yl)benzoylamino]ethoxy]phenyl]propionic acid] | 38
COc1ccc(-c2ccc(C(=O)NCCOc3ccc(CC(Oc4ccc(C(C)C)cc4)C(=O)O)cc3)cc2)nc1 (stereo not shown) [Example 111, 2-(4-Isopropylphenoxy)-3-[4-[2-[4-(3-methoxypyridine-6-yl)-benzoylamino]ethoxy]phenyl]propionic acid] | 70
CC(C)c1ccc(OC(Cc2ccc(OCCNC(=O)c3ccc(-c4ccc(N(C)C)cn4)cc3)cc2)C(=O)O)cc1 (stereo not shown) [Example 113, 3-[4-[2-[4-(3-Dimethylaminopyridine-6-yl)benzoylamino]ethoxy]-phenyl]-2-(4-isopropylphenoxy)propionic acid] | 64
Cc1ccc(OC(Cc2ccc(OCCNC(=O)c3ccc(-c4ccccn4)cc3)cc2)C(=O)O)cc1 (stereo not shown) [Example 115, 2-(4-Methylphenoxy)-3-[4-[2-(4-pyridine-2-ylbenzoylamino)ethoxy]phenyl]propionic acid] | 66
CC(C)(C)c1ccc(OC(Cc2ccc(OCCNC(=O)c3ccc(-c4ccccn4)cc3)cc2)C(=O)O)cc1 (stereo not shown) [Example 117, 2-(4-t-Butylphenoxy)-3-[4-[2-(4-pyridine-2-ylbenzoylamino)ethoxy]phenyl]propionic acid] | 70
O=C(NCCOc1ccc(CC(Oc2ccc(F)cc2)C(=O)O)cc1)c1ccc(-c2ccccn2)cc1 (stereo not shown) [Example 119, 2-(4-Fluorophenoxy)-3-[4-[2-(4-pyridine-2-ylbenzoylamino)ethoxy]phenyl]propionic acid] | 49
O=C(NCCOc1ccc(CC(Oc2ccc(Cl)cc2)C(=O)O)cc1)c1ccc(-c2ccccn2)cc1 (stereo not shown) [Example 121, 2-(4-Chlorophenoxy)-3-[4-[2-(4-pyridine-2-ylbenzoylamino)ethoxy]phenyl]propionic acid] | 60
O=C(NCCOc1ccc(CC(Oc2ccc(C(F)(F)F)cc2)C(=O)O)cc1)c1ccc(-c2ccccn2)cc1 (stereo not shown) [Example 123, 3-[4-[2-(4-Pyridine-2-ylbenzoylamino)ethoxy]phenyl]-2-(4-trifluoromethylphenoxy)propionic acid] | 43
COc1ccc(OC(Cc2ccc(OCCNC(=O)c3ccc(-c4ccccn4)cc3)cc2)C(=O)O)cc1 (stereo not shown) [Example 125, 2-(4-Methoxyphenoxy)-3-[4-[2-(4-pyridine-2-ylbenzoylamino)ethoxy]phenyl]propionic acid] | 54
O=C(NCCOc1ccc(CC(Oc2ccc(OC(F)(F)F)cc2)C(=O)O)cc1)c1ccc(-c2ccccn2)cc1 (stereo not shown) [Example 127, 3-[4-[2-(4-Pyridine-2-ylbenzoylamino)ethoxy]phenyl]-2-(4-trifluoromethoxyphenoxy)propionic acid] | 56
O=C(NCCOc1ccc(CC(Oc2cccc(F)c2)C(=O)O)cc1)c1ccc(-c2ccccn2)cc1 (stereo not shown) [Example 137, 2-(3-Fluorophenoxy)-3-[4-[2-(4-pyridine-2-ylbenzoylamino)ethoxy]phenyl]propionic acid] | 49
O=C(NCCOc1ccc(CC(Oc2cc(F)cc(F)c2)C(=O)O)cc1)c1ccc(-c2ccccn2)cc1 (stereo not shown) [Example 139, 2-(3,5-Difluorophenoxy)-3-[4-[2-(4-pyridine-2-ylbenzoylamino)ethoxy]phenyl]propionic acid] | 23
O=C(NCCOc1ccc(CC(Oc2ccc(F)c(F)c2)C(=O)O)cc1)c1ccc(-c2ccccn2)cc1 (stereo not shown) [Example 141, 2-(3,4-Difluorophenoxy)-3-[4-[2-(4-pyridine-2-ylbenzoylamino)ethoxy]phenyl]propionic acid] | 27
O=C(NCCOc1ccc(CC(Oc2cc(F)c(F)c(F)c2)C(=O)O)cc1)c1ccc(-c2ccccn2)cc1 (stereo not shown) [Example 143, 2-(3,4,5-Trifluorophenoxy)-3-[4-[2-(4-pyridine-2-ylbenzoylamino)ethoxy]phenyl]propionic acid] | 43
COC(=O)C(Cc1ccc(OCCNC(=O)c2ccc(-c3ccccn3)cc2)cc1)Sc1ccccc1 (stereo not shown) [Example 152, Methyl 2-phenylthio-3-[4-[2-(4-pyridine-2-ylbenzoylamino)ethoxy]phenyl]propionate] | 58

Same assay, conditions: compound admixed with powder feed at 0.01% (ca. 10 mg/kg/day) for three days, plasma glucose vs control group

Compound | Rate of hypoglycemic activity (%) (blood glucose depression rate)
O=C(NCCOc1ccc(CC(Oc2c(F)c(F)c(F)c(F)c2F)C(=O)O)cc1)c1ccc(-c2ccccn2)cc1 (stereo not shown) [Example 145, 2-Pentafluorophenoxy-3-[4-[2-(4-pyridine-2-ylbenzoylamino)ethoxy]phenyl]propionic acid] | 28
